From US10829520B2, “Beta-hairpin peptidomimetics” (POLYPHOR AG, priority 2015, dated 2020)
Where a SMILES comes first, the peptide text is derived from it. Bridges are numbered along the chain shown (N, C = ends). Roman numbers before positions name the chains, in order. [ ]: non-standard residue; d: D form. Tle = CC(C)(C)[C@H](N)C(=O)O; dDab = NCC[C@@H](N)C(=O)O; Nle = CCCC[C@H](N)C(=O)O; Orn = NCCC[C@H](N)C(=O)O; Dab = NCC[C@H](N)C(=O)O; Sar = CNCC(=O)O

Experiments:
Assay type in all cases: cell-based
[1] = test system: Acinetobacter baumannii 872842; conditions: 872842
[2] = test system: Acinetobacter baumannii DSM 30008; conditions: DSM 30008
In short: (§1)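 CLSI broth microdilution; MH-II (cation-adjusted) + 0.002% P-80; ~10^6 CFU/mL inoculum; peptide two-fold serial dilutions; 18-20 h, 35° C; MIC = no visible growth, μg/mL.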

[3] = test system: Escherichia coli 926415; conditions: 926415
[4] = test system: Escherichia coli ATCC 25922; conditions: ATCC 25922
In short: as §1

[5] = test system: Klebsiella pneumoniae 968733; conditions: 968733
[6] = test system: Klebsiella pneumoniae SSI #3010; conditions: SSI #3010
In short: as §1

[7] = test system: Pseudomonas aeruginosa ATCC 27853; conditions: ATCC 27853
In short: as §1

[8] = test system: human red blood cells (hRBC); experiment: Hemolysis of human red blood cells; conditions: red cells of human, 1 h, 100
In short: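 Each peptide was tested at a single concentration, 100 μg/mL. Erythrocytes (20% v/v) were incubated 1 h at 37° C. under shaking at 300 rpm, centrifuged, and released hemoglobin measured at OD540. Controls were PBS containing 0.001% acetic acid (0%) and Triton X-100 (100%).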

Compound	Acinetobacter baumannii 872842 MIC [1]	Acinetobacter baumannii DSM 30008 MIC [2]	Escherichia coli 926415 MIC [3]	Escherichia coli ATCC 25922 MIC [4]	Klebsiella pneumoniae 968733 MIC [5]	Klebsiella pneumoniae SSI #3010 MIC [6]	Pseudomonas aeruginosa ATCC 27853 MIC [7]	Hemolysis at 100 μg/mL [8]
CCCC[C@@H]1NC(=O)[C@@H]2CCCN2C(=O)[C@H]2CCCN2C(=O)[C@H](CO)NC(=O)[C@H](C)NC(=O)[C@H](C(C)(C)C)NC(=O)[C@H](CCN)NC(=O)[C@H](Cc2c[nH]c3ccccc23)NC(=O)[C@H](CCC(=O)N[C@H](C(=O)N[C@@H](CCN)C(=O)N[C@H]2CCNC(=O)[C@H]([C@@H](C)O)NC(=O)[C@H](CCN)NC(=O)[C@H](CCN)NC(=O)[C@H](CC(C)C)NC(=O)[C@@H](Cc3ccccc3)NC(=O)[C@H](CCN)NC2=O)[C@@H](C)O)NC(=O)[C@@H](CCN)NC(=O)[C@H](CCCN)NC(=O)[C@H](CCN)NC(=O)[C@H](Cc2ccc(O)cc2)NC(=O)[C@H](CO)NC1=O [Ex. 75] (I: cyclo([Nle]SY[Dab][Orn][dDab]EW[Dab][Tle]AS[dP]P) / II: T[Dab][Dab][Dab][dF]L[Dab][Dab]T; amide I:7-II:N; lactam II:3-II:C)	2 µg/mL	0.5 µg/mL	1 µg/mL	0.5 µg/mL	4 µg/mL	0.5 µg/mL	0.25 µg/mL	<1%
CC(C)C[C@@H]1NC(=O)[C@@H](CC(C)C)NC(=O)[C@H](CCN)NC(=O)[C@@H](NC(=O)[C@H](CCN)NC(=O)CN(C)C(=O)C[C@@H]2NC(=O)[C@H](CCN)NC(=O)[C@H](Cc3ccc(O)cc3)NC(=O)[C@H](CO)NC(=O)[C@H](CC(C)C)NC(=O)[C@@H]3CCCN3C(=O)[C@H]3CCCN3C(=O)[C@H](CO)NC(=O)[C@H](C)NC(=O)[C@H](C(C)C)NC(=O)[C@H](CCN)NC(=O)[C@H](Cc3c[nH]c4ccccc34)NC(=O)[C@H](CCN)NC(=O)[C@@H](CCN)NC2=O)CCNC(=O)[C@H]([C@@H](C)O)NC(=O)[C@H](CCN)NC(=O)[C@H](CCN)NC1=O [Ex. 76] (I: cyclo(W[Dab]VAS[dP]PLSY[Dab]D[dDab][Dab]) / II: [Sar][Dab][Dab][Dab][dL]L[Dab][Dab]T; amide I:12-II:N; lactam II:3-II:C)	0.5 µg/mL	1 µg/mL	0.5 µg/mL	2 µg/mL	2 µg/mL	2 µg/mL	0.5 µg/mL	1%
CC(C)C[C@@H]1NC(=O)[C@@H](CC(C)C)NC(=O)[C@H](CCN)NC(=O)[C@@H](NC(=O)[C@H](CCN)NC(=O)CN(C)C(=O)C[C@@H]2NC(=O)[C@H](CCCN)NC(=O)[C@H](CCN)NC(=O)[C@H](Cc3ccc(O)cc3)NC(=O)[C@H](CO)NC(=O)[C@H](CC(C)C)NC(=O)[C@@H]3CCCN3C(=O)[C@H]3CCCN3C(=O)[C@H](Cc3ccc(O)cc3)NC(=O)[C@H](C)NC(=O)[C@H](C(C)(C)C)NC(=O)[C@H](CCN)NC(=O)[C@H](Cc3c[nH]c4ccccc34)NC(=O)[C@H](CCN)NC2=O)CCNC(=O)[C@H]([C@@H](C)O)NC(=O)[C@H](CCN)NC(=O)[C@H](CCN)NC1=O [Ex. 77] (I: cyclo(LSY[Dab][Orn]D[Dab]W[Dab][Tle]AY[dP]P) / II: [Sar][Dab][Dab][Dab][dL]L[Dab][Dab]T; amide I:6-II:N; lactam II:3-II:C)	2 µg/mL	1 µg/mL	0.5 µg/mL	1 µg/mL	2 µg/mL	1 µg/mL	1 µg/mL	<1%
